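The compound was tested at five concentrations on cells cultured in 96-well plates, with a 48-hour exposure period. The concentration for 50% growth inhibition is given as GI50. TGI denotes the concentration required for complete inhibition of growth.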 A value given as a limit tells only on which side of the number the result lay.

Among the test systems are A498 renal; SNB-75 CNS; MALME-3M melanoma; 786-0 renal; RXF 393 renal; ACHN renal; SF-268 CNS; NCI-H522 lung; HOP-92 NSCLC.
What all share (test): DTP human tumour cell line panel, 48 h

With `CC(C)(C)OC1=C(OC(C)(C)C)C(O)(c2ccccc2)C1=O` (configuration not stated), the TGI in the assay on A498 renal, in the assay on SNB-75 CNS, in the assay with MALME-3M melanoma, in the assay with 786-0 renal, in the assay with RXF 393 renal and in the assay with ACHN renal was greater than 100 µM in each case. Besides, the concentration for total growth inhibition (TGI) with SF-268 CNS was greater than 100 µM.

Take `CCSCC1CC(O)(c2ccccc2)C(c2ccccc2)C(c2ccc(Cl)cc2)O1` (configuration not stated): the GI50 is 1.79 µM in the assay on A498 renal; 1.75 µM with SNB-75 CNS; 1.58 µM in the assay with MALME-3M melanoma; 1.64 µM in the assay with 786-0 renal; 0.688 µM with RXF 393 renal; 1.81 µM in the assay on ACHN renal. In addition, in the assay with SF-268 CNS, the GI50 is 2.1 µM. The total growth inhibition concentration (TGI) with A498 renal is 3.41 µM; in the assay on SNB-75 CNS it was 4.72 µM; in the assay with MALME-3M melanoma it was 3.18 µM; with 786-0 renal, 3.26 µM; with RXF 393 renal, 2.06 µM; in the assay on ACHN renal, 3.68 µM. Moreover, in the assay on SF-268 CNS, the TGI was found to be 5.56 µM.

Turning to `COc1ccc(C2CC(=O)c3c(O)cc(O)cc3O2)cc1O` (configuration not stated), the TGI in the assay with NCI-H522 lung, in the assay on A498 renal, in the assay with SNB-75 CNS, in the assay with MALME-3M melanoma, with 786-0 renal and with ACHN renal was greater than 100 µM in each case. Besides, in the assay with SF-268 CNS, the TGI was greater than 100 µM.

For `Cc1ccc(S(=O)(=O)OC2CCN(C)CC2)cc1`, the TGI in the assay with NCI-H522 lung is 46.5 µM; in the assay with SNB-75 CNS, greater than 100 µM; in the assay on MALME-3M melanoma, 37.9 µM; in the assay on HOP-92 NSCLC, 42.3 µM; with 786-0 renal, greater than 100 µM; in the assay with RXF 393 renal it was greater than 100 µM. In addition, the TGI in the assay with ACHN renal and in the assay with SF-268 CNS was greater than 100 µM each time.

As for `OC(c1cccc(-n2ccc(C(F)(F)F)n2)c1)c1cnccc1NC1CCCCCC1` (configuration not stated), the GI50 is 1.76 µM in the assay with NCI-H522 lung; 1.36 µM with SNB-75 CNS; 1.71 µM with MALME-3M melanoma; 1.21 µM in the assay with HOP-92 NSCLC; 1.72 µM in the assay with 786-0 renal; 1.36 µM in the assay with RXF 393 renal. Also, the GI50 in the assay with ACHN renal was 1.65 µM; in the assay on SF-268 CNS, 1.69 µM. The concentration for total growth inhibition (TGI) with NCI-H522 lung turned out to be 3.59 µM; in the assay on SNB-75 CNS, 2.67 µM; with MALME-3M melanoma, 3.23 µM; with HOP-92 NSCLC it was 2.53 µM; in the assay on 786-0 renal, 3.18 µM; with RXF 393 renal it was 2.74 µM. The results for the concentration for total growth inhibition (TGI) in the assay with ACHN renal and in the assay with SF-268 CNS were 3.02 µM and 3.25 µM, respectively.

On to `ON/N=C/c1cc2c(cc1Br)OCO2`, for which the total growth inhibition concentration (TGI) in the assay with NCI-H522 lung, in the assay on MALME-3M melanoma, in the assay on HOP-92 NSCLC, in the assay with 786-0 renal, in the assay on RXF 393 renal and in the assay on ACHN renal was greater than 386 µM in each case. Further, the TGI in the assay with SF-268 CNS was greater than 386 µM.

Take `CCOC(=O)Nc1cc2nnc(-c3ccccc3)nc2c(N)n1`: the TGI with SNB-75 CNS was 61.6 µM; in the assay on MALME-3M melanoma it was 87.7 µM; in the assay on HOP-92 NSCLC, 85.2 µM; in the assay with 786-0 renal, 27.1 µM; in the assay with RXF 393 renal it was 53.5 µM; with ACHN renal, greater than 100 µM. In the assay with SF-268 CNS, this compound registered a total growth inhibition concentration (TGI) greater than 100 µM.

As for `N=C(N)c1ccc(OCc2cccc(COc3ccc(C(=N)N)cc3)c2)cc1`, the GI50 in the assay with NCI-H522 lung was 16 µM; in the assay with SNB-75 CNS it was 11.3 µM; in the assay with MALME-3M melanoma, 1.77 µM; with HOP-92 NSCLC, 3.01 µM; in the assay on 786-0 renal, 4.56 µM; in the assay with ACHN renal, 17.8 µM. The GI50 with SF-268 CNS is 5.53 µM. Besides, the TGI was greater than 100 µM in the assay on NCI-H522 lung; 31.2 µM in the assay on SNB-75 CNS; 6.01 µM in the assay on MALME-3M melanoma; 9.32 µM with HOP-92 NSCLC; 15.1 µM in the assay with 786-0 renal; 49.3 µM in the assay with ACHN renal. Moreover, in the assay on SF-268 CNS, the concentration for total growth inhibition (TGI) was 18.5 µM.

As for `Cc1ccc(S(=O)(=O)c2c(N)c3nc4ccccc4n3c3nc4ccccc4nc23)cc1`, the TGI in the assay with NCI-H522 lung, with SNB-75 CNS, in the assay on MALME-3M melanoma, in the assay with 786-0 renal, in the assay on ACHN renal and in the assay on SF-268 CNS was greater than 100 µM each time.

As to `O=C(Nc1ccc(Cl)c(Cl)c1)c1cccc(NC2=C(Cl)C(=O)N(Cc3ccccc3)C2=O)c1`, the GI50 is 16.6 µM in the assay on NCI-H522 lung; 23.8 µM in the assay on A498 renal; greater than 100 µM with SNB-75 CNS; 62.1 µM in the assay with MALME-3M melanoma; 48.4 µM with 786-0 renal; 25.1 µM in the assay on RXF 393 renal. For the same compound, the GI50 is 39.8 µM with ACHN renal and 34.9 µM in the assay with SF-268 CNS. Also, the TGI in the assay on NCI-H522 lung was 45.5 µM; in the assay with A498 renal, greater than 100 µM; in the assay with SNB-75 CNS, greater than 100 µM; in the assay on MALME-3M melanoma it was greater than 100 µM; in the assay on 786-0 renal, greater than 100 µM; with RXF 393 renal it was 65.6 µM. The TGI in the assay with ACHN renal and in the assay on SF-268 CNS was greater than 100 µM throughout.

As to `CC(=O)N[C@@H](Cc1ccc(OP(=O)(O)O)cc1)C(=O)N[C@H]1CCC(=O)N2CCC[C@@H](C(=O)NCc3ccc(Cl)cc3)N2C1=O`, the GI50 in the assay on NCI-H522 lung, in the assay on A498 renal, in the assay with SNB-75 CNS, in the assay with MALME-3M melanoma, in the assay with 786-0 renal and with RXF 393 renal was greater than 25 µM each time. Also, the GI50 in the assay with ACHN renal and in the assay on SF-268 CNS was greater than 25 µM in each case. Moreover, the TGI in the assay on NCI-H522 lung, in the assay on A498 renal, in the assay with SNB-75 CNS, in the assay on MALME-3M melanoma, with 786-0 renal and with RXF 393 renal was greater than 25 µM throughout. Also, the total growth inhibition concentration (TGI) in the assay on ACHN renal and with SF-268 CNS was greater than 25 µM throughout.

On to `COc1ccc(OC)c(/C=N/NC(=O)Cc2csc3nc(-c4ccc(Br)cc4)cn23)c1`, for which the GI50 with NCI-H522 lung is 22.7 µM; in the assay on SNB-75 CNS, 23.9 µM; with HOP-92 NSCLC, 13.9 µM; with 786-0 renal, 26.3 µM; with RXF 393 renal it was 19 µM; in the assay on ACHN renal, 16.9 µM. For the same compound, in the assay on SF-268 CNS, the GI50 is greater than 100 µM. Moreover, the concentration for total growth inhibition (TGI) in the assay with NCI-H522 lung was greater than 100 µM; in the assay on SNB-75 CNS it was 65.4 µM; in the assay with HOP-92 NSCLC, 35.5 µM; in the assay with 786-0 renal, greater than 100 µM; in the assay with RXF 393 renal, 67.4 µM; in the assay with ACHN renal, 34.5 µM. This compound also displayed a total growth inhibition concentration (TGI) in the assay on SF-268 CNS greater than 100 µM.

In the case of `O=C(/C=C/c1ccc(OCCCOc2ccc(/C=C/C(=O)c3ccccc3)cc2)cc1)c1ccccc1`, the TGI with A498 renal, with SNB-75 CNS, in the assay on MALME-3M melanoma, with 786-0 renal, in the assay with RXF 393 renal and with ACHN renal was greater than 100 µM each time. The concentration for total growth inhibition (TGI) in the assay on SF-268 CNS is greater than 100 µM.

Take `C/C(CN1C(=O)c2ccccc2C1=O)=N\NS(=O)(=O)c1ccc(C)cc1`: the concentration for total growth inhibition (TGI) in the assay with NCI-H522 lung, with A498 renal, in the assay on SNB-75 CNS, in the assay with MALME-3M melanoma, in the assay with 786-0 renal and in the assay on ACHN renal was greater than 100 µM in each case.

In the case of `COc1ccccc1NC(=O)c1sc2nc3c(cc2c1N)C(=O)CCC3`, the GI50 in the assay with NCI-H522 lung was 0.586 µM; in the assay with A498 renal, 1.84 µM; in the assay with SNB-75 CNS, 2.36 µM; in the assay on MALME-3M melanoma it was 1.75 µM; with 786-0 renal, 4.05 µM; with RXF 393 renal, 1.83 µM. Also, the GI50 in the assay with ACHN renal was 6.2 µM; in the assay on SF-268 CNS it was 5.06 µM. Besides, the total growth inhibition concentration (TGI) is 38.7 µM in the assay on NCI-H522 lung; greater than 100 µM in the assay on A498 renal; 9.42 µM in the assay on SNB-75 CNS; greater than 100 µM with MALME-3M melanoma; greater than 100 µM with 786-0 renal; 9.33 µM in the assay on RXF 393 renal. The TGI in the assay with ACHN renal and in the assay with SF-268 CNS was greater than 100 µM each time.

On to `FC(F)(F)c1nc(N2CCCC2)ncc1-c1nnnn1-c1ccc(Cl)cc1`, for which the GI50 in the assay with NCI-H522 lung was 10.2 µM; in the assay with A498 renal, 18.3 µM; with SNB-75 CNS, 12 µM; with MALME-3M melanoma it was 16.9 µM; in the assay with 786-0 renal, 33.2 µM; in the assay with RXF 393 renal, 14.9 µM. Besides, the GI50 in the assay with ACHN renal was 18.7 µM; with SF-268 CNS, 23.7 µM. In addition, the total growth inhibition concentration (TGI) is 59 µM in the assay with NCI-H522 lung; 62.7 µM in the assay with A498 renal; 65.3 µM in the assay on SNB-75 CNS; 42.6 µM in the assay on MALME-3M melanoma; greater than 100 µM with 786-0 renal; 51.7 µM in the assay with RXF 393 renal. For the same compound, the concentration for total growth inhibition (TGI) with ACHN renal and with SF-268 CNS was greater than 100 µM throughout.

For `NC1=NC(=O)/C(=C/c2ccccc2[N+](=O)[O-])C(N)=N1`, the TGI in the assay with NCI-H522 lung, in the assay with SNB-75 CNS, with MALME-3M melanoma, with HOP-92 NSCLC, with 786-0 renal and in the assay on RXF 393 renal was greater than 100 µM in each case. This compound also came in with a TGI in the assay with ACHN renal greater than 100 µM.

In the case of `N#Cc1ccccc1NC(=O)/C(=N\N)C(C(=O)c1ccncc1)C1OC(=O)c2ccccc21` (configuration not stated), the TGI with NCI-H522 lung, in the assay with MALME-3M melanoma, in the assay on HOP-92 NSCLC, with 786-0 renal, in the assay on ACHN renal and with SF-268 CNS was greater than 100 µM in each case.

For the compound `O=C(O)C/C(=C\c1ccco1)C(=O)O`, the TGI in the assay with NCI-H522 lung, in the assay with A498 renal, in the assay with SNB-75 CNS, in the assay on MALME-3M melanoma, with 786-0 renal and in the assay with RXF 393 renal was greater than 100 µM in each case. In addition, in the assay on ACHN renal, the TGI was greater than 100 µM.

Values taken from PubChem BioAssay (NCI).
